According to article PMC2819846 (Mutation research, 2008):

How the values were obtained:
Assay type in all cases: cell-based
Salmonella TA100 = assay: Salmonella plate-incorporation mutagenicity assay, strain TA100
Salmonella TA104 = assay: Salmonella plate-incorporation mutagenicity assay, strain TA104, with S9 mix; details: for Mutagenic potency, Revertants/µg ± S.E., TA104: plate-incorporation, +S9
Salmonella TA98 = assay: Salmonella plate-incorporation mutagenicity assay, strain TA98, with S9 mix
[1] = TA100 +S9, Test 1, 2 µg/plate, zero-dose 99/110/110
[2] = TA100 +S9, Test 1, 5 µg/plate, zero-dose 99/110/110
[3] = TA100 +S9, Test 1, 10 µg/plate, zero-dose 99/110/110
[4] = TA100 +S9, Test 1, 20 µg/plate, zero-dose 99/110/110
[5] = TA100 +S9, Test 1, 40 µg/plate, zero-dose 99/110/110
[6] = TA100 +S9, Test 1, 80 µg/plate, zero-dose 99/110/110
[7] = TA100 +S9, Test 2, 5 µg/plate, zero-dose 84/78/80
[8] = TA100 +S9, Test 2, 10 µg/plate, zero-dose 84/78/80
[9] = TA100 +S9, Test 3, 5 µg/plate, zero-dose 127/118/125
[10] = TA100 +S9, Test 3, 10 µg/plate, zero-dose 127/118/125
[11] = TA104 +S9, Test 2, 5 µg/plate, zero-dose 276/260/270
[12] = TA104 +S9, Test 2, 10 µg/plate, zero-dose 276/260/270
[13] = TA104 +S9, Test 3, 5 µg/plate, zero-dose 402/395/336
[14] = TA104 +S9, Test 3, 10 µg/plate, zero-dose 402/395/336
[15] = TA98 +S9, Test 1, 2 µg/plate, zero-dose 33/40/39
[16] = TA98 +S9, Test 1, 5 µg/plate, zero-dose 33/40/39
[17] = TA98 +S9, Test 1, 10 µg/plate, zero-dose 33/40/39
[18] = TA98 +S9, Test 1, 20 µg/plate, zero-dose 33/40/39
[19] = TA98 +S9, Test 1, 40 µg/plate, zero-dose 33/40/39
[20] = TA98 +S9, Test 1, 80 µg/plate, zero-dose 33/40/39
[21] = TA98 +S9, Test 2, 5 µg/plate, zero-dose 43/41/30
[22] = TA98 +S9, Test 2, 10 µg/plate, zero-dose 43/41/30
[23] = TA98 +S9, Test 3, 5 µg/plate, zero-dose 49/50/50
[24] = TA98 +S9, Test 3, 10 µg/plate, zero-dose 49/50/50

In the case of `O[C@@H]1c2ccccc2-c2c(ccc3ccsc23)[C@H]1O` (racemic) [P[4,3-b]T 6,7-diol, (±)-trans-6,7-Dihydrophenanthro[4,3-b]thiophene 6,7-diol], the Rev/plate (Salmonella TA100; [1]) is reported as 101 rev/plate, the Rev/plate (Salmonella TA100; [2]) is reported as 128 rev/plate and the Rev/plate (Salmonella TA100; [3]) is reported as 126 rev/plate. The Rev/plate (Salmonella TA100; [4]) was 127 rev/plate, the Rev/plate (Salmonella TA100; [5]) was 132 rev/plate and the Rev/plate (Salmonella TA100; [6]) was 137 rev/plate. The Rev/plate (Salmonella TA100; [7]) was 97/98, the Rev/plate (Salmonella TA100; [8]) was 79/88 and the Rev/plate (Salmonella TA100; TA100 +S9, Test 2, 20 µg/plate, zero-dose 84/78/80) was 94/113. The Rev/plate (Salmonella TA100; TA100 +S9, Test 2, 40 µg/plate, zero-dose 84/78/80) was 119/81, the Rev/plate (Salmonella TA100; [9]) was 125/135 and the Rev/plate (Salmonella TA100; [10]) was 132/119. The Rev/plate (Salmonella TA100; TA100 +S9, Test 3, 20 µg/plate, zero-dose 127/118/125) was 134/155, the Rev/plate (Salmonella TA100; TA100 +S9, Test 3, 40 µg/plate, zero-dose 127/118/125) was 136/128 and the “Mutagenic potency, Revertants/µg ± S.E., TA100” value (Salmonella TA100; plate-incorporation, +S9) was 0.4 ± 0.1 rev/µg. For the same compound, the Rev/plate (Salmonella TA104; [11]) was 330/353, the Rev/plate (Salmonella TA104; [12]) was 391/347 and the Rev/plate (Salmonella TA104; TA104 +S9, Test 2, 20 µg/plate, zero-dose 276/260/270) was 348/340. The Rev/plate (Salmonella TA104; TA104 +S9, Test 2, 40 µg/plate, zero-dose 276/260/270) was 305/354, the Rev/plate (Salmonella TA104; [13]) was 438/407 and the Rev/plate (Salmonella TA104; [14]) was 442/462. The Rev/plate (Salmonella TA104; TA104 +S9, Test 3, 20 µg/plate, zero-dose 402/395/336) was 423/445, the Rev/plate (Salmonella TA104; TA104 +S9, Test 3, 40 µg/plate, zero-dose 402/395/336) was 365/373 and the “Mutagenic potency, Revertants/µg ± S.E., TA104” value (Salmonella TA104) was 9.2 ± 1.3 rev/µg. The Rev/plate (Salmonella TA98; [15]) was 34 rev/plate, the Rev/plate (Salmonella TA98; [16]) was 35 rev/plate and the Rev/plate (Salmonella TA98; [17]) was 47 rev/plate. It also gave a Rev/plate (Salmonella TA98; [18]) of 52 rev/plate, a Rev/plate (Salmonella TA98; [19]) of 39 rev/plate and a Rev/plate (Salmonella TA98; [20]) of 36 rev/plate. The Rev/plate (Salmonella TA98; [21]) was 28/34, the Rev/plate (Salmonella TA98; [22]) was 27/28 and the Rev/plate (Salmonella TA98; TA98 +S9, Test 2, 20 µg/plate, zero-dose 43/41/30) was 38/27. For the same compound, the Rev/plate (Salmonella TA98; TA98 +S9, Test 2, 40 µg/plate, zero-dose 43/41/30) was 33/27, the Rev/plate (Salmonella TA98; [23]) was 50/53 and the Rev/plate (Salmonella TA98; [24]) was 43/47. The Rev/plate (Salmonella TA98; TA98 +S9, Test 3, 20 µg/plate, zero-dose 49/50/50) was 52/47, the Rev/plate (Salmonella TA98; TA98 +S9, Test 3, 40 µg/plate, zero-dose 49/50/50) was 48/50 and the “Mutagenic potency, Revertants/µg ± S.E., TA98” value (Salmonella TA98; plate-incorporation, +S9) was −0.2 ± 0.1 rev/µg.

`c1ccc2c(c1)ccc1ccc3ccsc3c12` [P[4,3-b]T, Phenanthro[4,3-b]thiophene] gave a Rev/plate (Salmonella TA100; [1]) of 172 rev/plate, a Rev/plate (Salmonella TA100; [2]) of 194 rev/plate and a Rev/plate (Salmonella TA100; [3]) of 190 rev/plate. For the same compound, the Rev/plate (Salmonella TA100; [4]) was 125 rev/plate, the Rev/plate (Salmonella TA100; [5]) was 188 rev/plate and the Rev/plate (Salmonella TA100; [6]) was 164 rev/plate. The Rev/plate (Salmonella TA100; TA100 +S9, Test 2, 1 µg/plate, zero-dose 84/78/80) was 80/84, the Rev/plate (Salmonella TA100; TA100 +S9, Test 2, 2 µg/plate, zero-dose 84/78/80) was 92/89 and the Rev/plate (Salmonella TA100; [7]) was 116/108. The Rev/plate (Salmonella TA100; [8]) was 119/98, the Rev/plate (Salmonella TA100; TA100 +S9, Test 3, 1 µg/plate, zero-dose 127/118/125) was 142/160 and the Rev/plate (Salmonella TA100; TA100 +S9, Test 3, 2 µg/plate, zero-dose 127/118/125) was 185/164. The Rev/plate (Salmonella TA100; [9]) was 218/248, the Rev/plate (Salmonella TA100; [10]) was 274/291 and the Rev/plate (Salmonella TA100; TA100 +S9, Test 4, 1 µg/plate, zero-dose 112/140/115) was 160/156. The Rev/plate (Salmonella TA100; TA100 +S9, Test 4, 2 µg/plate, zero-dose 112/140/115) was 164/156, the Rev/plate (Salmonella TA100; TA100 +S9, Test 4, 5 µg/plate, zero-dose 112/140/115) was 218/198 and the Rev/plate (Salmonella TA100; TA100 +S9, Test 4, 10 µg/plate, zero-dose 112/140/115) was 275/234. For the same compound, the “Mutagenic potency, Revertants/µg ± S.E., TA100” value (Salmonella TA100; plate-incorporation, +S9) was 12.8 ± 3.9 rev/µg, the “Mutagenicity call TA100” value (Salmonella TA100; plate-incorporation, +S9) was “(+) (Called mutagenic (+) based on showing reproducible, dose-related increases in rev/plate that reached or exceeded 2-fold relative to zero-dose controls)” and the Rev/plate (Salmonella TA104; TA104 +S9, Test 2, 1 µg/plate, zero-dose 276/260/270) was 392/313. For the same compound, the Rev/plate (Salmonella TA104; TA104 +S9, Test 2, 2 µg/plate, zero-dose 276/260/270) was 414/432, the Rev/plate (Salmonella TA104; [11]) was 419/440 and the Rev/plate (Salmonella TA104; [12]) was 437/473. For the same compound, the Rev/plate (Salmonella TA104; TA104 +S9, Test 3, 1 µg/plate, zero-dose 402/395/336) was 457/397, the Rev/plate (Salmonella TA104; TA104 +S9, Test 3, 2 µg/plate, zero-dose 402/395/336) was 468/515 and the Rev/plate (Salmonella TA104; [13]) was 490/505. The Rev/plate (Salmonella TA104; [14]) was 489/509, the Rev/plate (Salmonella TA104; TA104 +S9, Test 4, 1 µg/plate, zero-dose 482/455/462) was 517/524 and the Rev/plate (Salmonella TA104; TA104 +S9, Test 4, 2 µg/plate, zero-dose 482/455/462) was 532/540. The Rev/plate (Salmonella TA104; TA104 +S9, Test 4, 5 µg/plate, zero-dose 482/455/462) was 540/497, the Rev/plate (Salmonella TA104; TA104 +S9, Test 4, 10 µg/plate, zero-dose 482/455/462) was 520/592 and the “Mutagenic potency, Revertants/µg ± S.E., TA104” value (Salmonella TA104) was 58.9 ± 7.9 rev/µg. It also gave a Rev/plate (Salmonella TA98; [15]) of 61 rev/plate, a Rev/plate (Salmonella TA98; [16]) of 137 rev/plate and a Rev/plate (Salmonella TA98; [17]) of 141 rev/plate. It also gave a Rev/plate (Salmonella TA98; [18]) of 146 rev/plate, a Rev/plate (Salmonella TA98; [19]) of 158 rev/plate and a Rev/plate (Salmonella TA98; [20]) of 105 rev/plate. The Rev/plate (Salmonella TA98; TA98 +S9, Test 2, 1 µg/plate, zero-dose 43/41/30) was 39/49, the Rev/plate (Salmonella TA98; TA98 +S9, Test 2, 2 µg/plate, zero-dose 43/41/30) was 41/33 and the Rev/plate (Salmonella TA98; [21]) was 97/77. The Rev/plate (Salmonella TA98; [22]) was 110/79, the Rev/plate (Salmonella TA98; TA98 +S9, Test 3, 1 µg/plate, zero-dose 49/50/50) was 93/74 and the Rev/plate (Salmonella TA98; TA98 +S9, Test 3, 2 µg/plate, zero-dose 49/50/50) was 98/77. For the same compound, the Rev/plate (Salmonella TA98; [23]) was 162/166, the Rev/plate (Salmonella TA98; [24]) was 194/213 and the “Mutagenic potency, Revertants/µg ± S.E., TA98” value (Salmonella TA98; plate-incorporation, +S9) was 13.7 ± 3.3 rev/µg. The “Mutagenicity call TA98” value (Salmonella TA98; plate-incorporation, +S9) was “(+) (Called mutagenic (+) based on showing reproducible, dose-related increases in rev/plate that reached or exceeded 2-fold relative to zero-dose controls)”.
